Experimental data reported in PMC7332385 (Journal of the American Society for Mass Spectrometry, 2020).
Read-outs that look alike come from different tables or passages of the source.

Experiments:
β-2-microglobulin (β2m) [1] = details: read-out: Kd for Cu(II) bound to β2m, cited from earlier work
[2] = biological target: Cu(II)-β2m (β-2-microglobulin) (Homo sapiens, UniProt P61769); test: CL-MS ligand titration of Cu; type: binding; details: read-out: Cu(II)-β2m and EGCG Kd; DEPC (120 μM) labeling of the N-terminal amine; 30 μM β2m, 60 μM Cu(II); triplicate
Cu(II)-β2m (β-2-microglobulin), sequence (P61769 21-119): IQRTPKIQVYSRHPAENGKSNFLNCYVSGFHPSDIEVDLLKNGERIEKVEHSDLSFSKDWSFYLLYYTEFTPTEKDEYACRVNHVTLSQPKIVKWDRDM

β-2-microglobulin (β2m) [3] = details: read-out: EGCG-β2m Kd; from size exclusion chromatography data; cited from earlier work

Row | Compound | Kd (β-2-microglobulin (β2m) [1]; in the presence of EGCG) | Kd (β-2-microglobulin (β2m) [1]; without EGCG) | Kd [2] | Kd (β-2-microglobulin (β2m) [3])
1 | O=S(=O)([O-])[O-].[Cu+2] [Cu(II), copper sulfate] | 49 µM | 3 µM | – | –
2 | O=C(O[C@@H]1Cc2c(O)cc(O)cc2O[C@@H]1c1cc(O)c(O)c(O)c1)c1cc(O)c(O)c(O)c1 [EGCG, epigallocatechin gallate] | – | – | 12 ± 5 µM | 6 µM
